Results taken from ChEMBL document CHEMBL3421558, “Structure activity relationship of substituted 1,5-naphthyridine analogs of oxabicyclooctane-linked novel bacterial topoisomerase inhibitors as broad-spectrum antibacterial agents (Part-4)” (Bioorg Med Chem Lett, 2015).
In brackets after ≈: the same amount, converted by molar mass.

The compounds below were run on Staphylococcus aureus (assay: Antimicrobial activity against Staphylococcus aureus Smith by micro broth dilution or agar based method). Conditions: Staphylococcus aureus, Smith; read-out: MIC.
Type: functional

Structure (SMILES) | MIC [µg/mL]
COc1cc2nccc(CCC34CCC(NCc5ccc6c(n5)NC(=O)CO6)(CC3)CO4)c2nc1OC | 2 (≈ 3.96 µM)
O=C1COc2ccc(CNC34CCC(CCc5c(F)cnc6ccc(N7CCS(=O)(=O)CC7)nc56)(CC3)OC4)nc2N1 | 1 (≈ 1.68 µM)
COC(=O)c1ccc2ncc(F)c(CCC34CCC(NCc5ccc6c(n5)NC(=O)CO6)(CC3)CO4)c2n1 | 0.063 (≈ 0.121 µM)
COc1ccc2nc(N3CCNCC3)c(F)c(CCC34CCC(NCc5ccc6c(n5)NC(=O)CO6)(CC3)CO4)c2n1 | 8 (≈ 13.8 µM)
COc1cc(CCC23CCC(NCc4ccc5c(n4)NC(=O)CO5)(CC2)CO3)c2nc(OC)ccc2n1 | 4 (≈ 7.91 µM)
COc1cc2nccc(CCC34CCC(NCc5ccc6c(n5)NC(=O)CO6)(CC3)CO4)c2nc1C(=O)O | 16 (≈ 30.8 µM)
Cc1cc(C#N)nc2c(CCC34CCC(NCc5ccc6c(n5)NC(=O)CO6)(CC3)CO4)ccnc12 | 1 (≈ 2.06 µM)
CN(C)c1nc2c(CCC34CCC(NCc5ccc6c(n5)NC(=O)CO6)(CC3)CO4)ccnc2cc1F | 1 (≈ 1.97 µM)
N#Cc1ccc2ncc(C#N)c(CCC34CCC(NCc5ccc6c(n5)NC(=O)CO6)(CC3)CO4)c2n1 | 0.25 (≈ 0.504 µM)

The compounds below were run on Staphylococcus aureus (assay: Antimicrobial activity against methicillin-resistant Staphylococcus aureus OIT971 by micro broth dilution or agar based method). Conditions: not given.
Type: functional

Structure (SMILES) | MIC [µg/mL]
COc1cc2nccc(CCC34CCC(NCc5ccc6c(n5)NC(=O)CO6)(CC3)CO4)c2nc1OC | 1 (≈ 1.98 µM)
O=C1COc2ccc(CNC34CCC(CCc5c(F)cnc6ccc(N7CCS(=O)(=O)CC7)nc56)(CC3)OC4)nc2N1 | 1 (≈ 1.68 µM)
COC(=O)c1ccc2ncc(F)c(CCC34CCC(NCc5ccc6c(n5)NC(=O)CO6)(CC3)CO4)c2n1 | 0.063 (≈ 0.121 µM)
COc1ccc2nc(N3CCNCC3)c(F)c(CCC34CCC(NCc5ccc6c(n5)NC(=O)CO6)(CC3)CO4)c2n1 | 8 (≈ 13.8 µM)
COc1cc(CCC23CCC(NCc4ccc5c(n4)NC(=O)CO5)(CC2)CO3)c2nc(OC)ccc2n1 | 1 (≈ 1.98 µM)
COc1cc2nccc(CCC34CCC(NCc5ccc6c(n5)NC(=O)CO6)(CC3)CO4)c2nc1C(=O)O | 16 (≈ 30.8 µM)
Cc1cc(C#N)nc2c(CCC34CCC(NCc5ccc6c(n5)NC(=O)CO6)(CC3)CO4)ccnc12 | 0.5 (≈ 1.03 µM)
CN(C)c1nc2c(CCC34CCC(NCc5ccc6c(n5)NC(=O)CO6)(CC3)CO4)ccnc2cc1F | 1 (≈ 1.97 µM)
N#Cc1ccc2ncc(C#N)c(CCC34CCC(NCc5ccc6c(n5)NC(=O)CO6)(CC3)CO4)c2n1 | 0.125 (≈ 0.252 µM)

Each compound was assayed on Streptococcus pneumoniae (assay: Antimicrobial activity against Streptococcus pneumoniae IID553 by micro broth dilution or agar based method). Conditions: Streptococcus pneumoniae, IID553; read-out: MIC.
Type: functional

Structure (SMILES) | MIC [µg/mL]
COc1cc2nccc(CCC34CCC(NCc5ccc6c(n5)NC(=O)CO6)(CC3)CO4)c2nc1OC | 8 (≈ 15.8 µM)
O=C1COc2ccc(CNC34CCC(CCc5c(F)cnc6ccc(N7CCS(=O)(=O)CC7)nc56)(CC3)OC4)nc2N1 | 4 (≈ 6.7 µM)
COC(=O)c1ccc2ncc(F)c(CCC34CCC(NCc5ccc6c(n5)NC(=O)CO6)(CC3)CO4)c2n1 | 16 (≈ 30.7 µM)
COc1ccc2nc(N3CCNCC3)c(F)c(CCC34CCC(NCc5ccc6c(n5)NC(=O)CO6)(CC3)CO4)c2n1 | 8 (≈ 13.8 µM)
COc1cc(CCC23CCC(NCc4ccc5c(n4)NC(=O)CO5)(CC2)CO3)c2nc(OC)ccc2n1 | 8 (≈ 15.8 µM)
COc1cc2nccc(CCC34CCC(NCc5ccc6c(n5)NC(=O)CO6)(CC3)CO4)c2nc1C(=O)O | 16 (≈ 30.8 µM)
Cc1cc(C#N)nc2c(CCC34CCC(NCc5ccc6c(n5)NC(=O)CO6)(CC3)CO4)ccnc12 | 8 (≈ 16.5 µM)
CN(C)c1nc2c(CCC34CCC(NCc5ccc6c(n5)NC(=O)CO6)(CC3)CO4)ccnc2cc1F | 16 (≈ 31.6 µM)
N#Cc1ccc2ncc(C#N)c(CCC34CCC(NCc5ccc6c(n5)NC(=O)CO6)(CC3)CO4)c2n1 | 1 (≈ 2.02 µM)

These compounds were tested on Enterococcus faecium (assay: Antimicrobial activity against VanA expressing vancomycin-resistant Enterococcus faecium by micro broth dilution or agar based method). Conditions: Enterococcus faecium; read-out: MIC.
Type: functional

Structure (SMILES) | MIC [µg/mL]
COc1cc2nccc(CCC34CCC(NCc5ccc6c(n5)NC(=O)CO6)(CC3)CO4)c2nc1OC | 8 (≈ 15.8 µM)
O=C1COc2ccc(CNC34CCC(CCc5c(F)cnc6ccc(N7CCS(=O)(=O)CC7)nc56)(CC3)OC4)nc2N1 | 16 (≈ 26.8 µM)
COC(=O)c1ccc2ncc(F)c(CCC34CCC(NCc5ccc6c(n5)NC(=O)CO6)(CC3)CO4)c2n1 | 16 (≈ 30.7 µM)
COc1ccc2nc(N3CCNCC3)c(F)c(CCC34CCC(NCc5ccc6c(n5)NC(=O)CO6)(CC3)CO4)c2n1 | 8 (≈ 13.8 µM)
COc1cc(CCC23CCC(NCc4ccc5c(n4)NC(=O)CO5)(CC2)CO3)c2nc(OC)ccc2n1 | 8 (≈ 15.8 µM)
COc1cc2nccc(CCC34CCC(NCc5ccc6c(n5)NC(=O)CO6)(CC3)CO4)c2nc1C(=O)O | 16 (≈ 30.8 µM)
Cc1cc(C#N)nc2c(CCC34CCC(NCc5ccc6c(n5)NC(=O)CO6)(CC3)CO4)ccnc12 | 8 (≈ 16.5 µM)
CN(C)c1nc2c(CCC34CCC(NCc5ccc6c(n5)NC(=O)CO6)(CC3)CO4)ccnc2cc1F | 16 (≈ 31.6 µM)
N#Cc1ccc2ncc(C#N)c(CCC34CCC(NCc5ccc6c(n5)NC(=O)CO6)(CC3)CO4)c2n1 | 4 (≈ 8.07 µM)

These compounds were tested on Escherichia coli (assay: Antimicrobial activity against Escherichia coli ATCC 25922 by micro broth dilution or agar based method). Conditions: Escherichia coli, ATCC 25922; read-out: MIC.
Type: functional

Structure (SMILES) | MIC [µg/mL]
COc1cc2nccc(CCC34CCC(NCc5ccc6c(n5)NC(=O)CO6)(CC3)CO4)c2nc1OC | 8 (≈ 15.8 µM)
O=C1COc2ccc(CNC34CCC(CCc5c(F)cnc6ccc(N7CCS(=O)(=O)CC7)nc56)(CC3)OC4)nc2N1 | 16 (≈ 26.8 µM)
COC(=O)c1ccc2ncc(F)c(CCC34CCC(NCc5ccc6c(n5)NC(=O)CO6)(CC3)CO4)c2n1 | 8 (≈ 15.3 µM)
COc1ccc2nc(N3CCNCC3)c(F)c(CCC34CCC(NCc5ccc6c(n5)NC(=O)CO6)(CC3)CO4)c2n1 | 8 (≈ 13.8 µM)
COc1cc(CCC23CCC(NCc4ccc5c(n4)NC(=O)CO5)(CC2)CO3)c2nc(OC)ccc2n1 | 8 (≈ 15.8 µM)
COc1cc2nccc(CCC34CCC(NCc5ccc6c(n5)NC(=O)CO6)(CC3)CO4)c2nc1C(=O)O | 16 (≈ 30.8 µM)
Cc1cc(C#N)nc2c(CCC34CCC(NCc5ccc6c(n5)NC(=O)CO6)(CC3)CO4)ccnc12 | 16 (≈ 33 µM)
CN(C)c1nc2c(CCC34CCC(NCc5ccc6c(n5)NC(=O)CO6)(CC3)CO4)ccnc2cc1F | 16 (≈ 31.6 µM)
N#Cc1ccc2ncc(C#N)c(CCC34CCC(NCc5ccc6c(n5)NC(=O)CO6)(CC3)CO4)c2n1 | 8 (≈ 16.1 µM)

Each compound was assayed on Acinetobacter baumannii (assay: Antimicrobial activity against Acinetobacter baumannii IID876 by micro broth dilution or agar based method). Conditions: Acinetobacter baumannii, IID876; read-out: MIC.
Type: functional

Structure (SMILES) | MIC [µg/mL]
COc1cc2nccc(CCC34CCC(NCc5ccc6c(n5)NC(=O)CO6)(CC3)CO4)c2nc1OC | 8 (≈ 15.8 µM)
O=C1COc2ccc(CNC34CCC(CCc5c(F)cnc6ccc(N7CCS(=O)(=O)CC7)nc56)(CC3)OC4)nc2N1 | 16 (≈ 26.8 µM)
COC(=O)c1ccc2ncc(F)c(CCC34CCC(NCc5ccc6c(n5)NC(=O)CO6)(CC3)CO4)c2n1 | 2 (≈ 3.83 µM)
COc1ccc2nc(N3CCNCC3)c(F)c(CCC34CCC(NCc5ccc6c(n5)NC(=O)CO6)(CC3)CO4)c2n1 | 8 (≈ 13.8 µM)
COc1cc(CCC23CCC(NCc4ccc5c(n4)NC(=O)CO5)(CC2)CO3)c2nc(OC)ccc2n1 | 8 (≈ 15.8 µM)
COc1cc2nccc(CCC34CCC(NCc5ccc6c(n5)NC(=O)CO6)(CC3)CO4)c2nc1C(=O)O | 16 (≈ 30.8 µM)
Cc1cc(C#N)nc2c(CCC34CCC(NCc5ccc6c(n5)NC(=O)CO6)(CC3)CO4)ccnc12 | 4 (≈ 8.25 µM)
CN(C)c1nc2c(CCC34CCC(NCc5ccc6c(n5)NC(=O)CO6)(CC3)CO4)ccnc2cc1F | 16 (≈ 31.6 µM)
N#Cc1ccc2ncc(C#N)c(CCC34CCC(NCc5ccc6c(n5)NC(=O)CO6)(CC3)CO4)c2n1 | 2 (≈ 4.04 µM)

The compounds below were run on Pseudomonas aeruginosa (assay: Antimicrobial activity against Pseudomonas aeruginosa PAO1 by micro broth dilution or agar based method). Conditions: Pseudomonas aeruginosa, PAO1; read-out: MIC.
Type: functional

Structure (SMILES) | MIC [µg/mL]
COc1cc2nccc(CCC34CCC(NCc5ccc6c(n5)NC(=O)CO6)(CC3)CO4)c2nc1OC | 8 (≈ 15.8 µM)
O=C1COc2ccc(CNC34CCC(CCc5c(F)cnc6ccc(N7CCS(=O)(=O)CC7)nc56)(CC3)OC4)nc2N1 | 16 (≈ 26.8 µM)
COC(=O)c1ccc2ncc(F)c(CCC34CCC(NCc5ccc6c(n5)NC(=O)CO6)(CC3)CO4)c2n1 | 16 (≈ 30.7 µM)
COc1ccc2nc(N3CCNCC3)c(F)c(CCC34CCC(NCc5ccc6c(n5)NC(=O)CO6)(CC3)CO4)c2n1 | 8 (≈ 13.8 µM)
COc1cc(CCC23CCC(NCc4ccc5c(n4)NC(=O)CO5)(CC2)CO3)c2nc(OC)ccc2n1 | 8 (≈ 15.8 µM)
COc1cc2nccc(CCC34CCC(NCc5ccc6c(n5)NC(=O)CO6)(CC3)CO4)c2nc1C(=O)O | 16 (≈ 30.8 µM)
Cc1cc(C#N)nc2c(CCC34CCC(NCc5ccc6c(n5)NC(=O)CO6)(CC3)CO4)ccnc12 | 64 (≈ 132 µM)
CN(C)c1nc2c(CCC34CCC(NCc5ccc6c(n5)NC(=O)CO6)(CC3)CO4)ccnc2cc1F | 16 (≈ 31.6 µM)
N#Cc1ccc2ncc(C#N)c(CCC34CCC(NCc5ccc6c(n5)NC(=O)CO6)(CC3)CO4)c2n1 | 16 (≈ 32.3 µM)

What follows are compounds tested on Staphylococcus aureus (assay: Potency index, ratio of MIC for quinolone-resistant Staphylococcus aureus MS5935 to MIC for quinolone-[…]). Conditions: not given.
Type: functional

Structure (SMILES) | Ratio
O=C1COc2ccc(CNC34CCC(CCc5c(F)cnc6ccc(N7CCS(=O)(=O)CC7)nc56)(CC3)OC4)nc2N1 | <4
COc1ccc2nc(N3CCNCC3)c(F)c(CCC34CCC(NCc5ccc6c(n5)NC(=O)CO6)(CC3)CO4)c2n1 | <4
